Experimental data from patent publication US9975853B2, “Tetrahydroisoquinolinone derivatives and their use in the inhibition of the HSP70 protein” (Julius-Maximilians-Universitaet Wuerzburg, priority 2014, dated 2018).
Like-named read-outs stand apart in the source and are kept apart here.

Tested on: INA-6
Assay: Cell viability assay (annexin V-FITC/propidium iodide, flow cytometry) in INA-6 multiple myeloma cells
Type: cell-based, human
Conditions: Homo sapiens, INA-6, 72 h, read-out: INA-6 EC50(±sdv)
Method: The effect of pharmacological Hsp70 inhibition on cell viability was analyzed after 72 hours of treatment in both non-malignant (mononuclear cells from the peripheral blood) and malignant lymphocytes (multiple myeloma cells). The mononuclear cells were separated from the peripheral blood of healthy donors by Ficoll-Hypaque density gradient centrifugation. The human cell line INA-6 represents a well-established model for multiple myeloma. The percentage of viable and apoptotic cell fractions was assessed using an annexin V-FITC/propidium iodide (PI) staining kit (Bender MedSystems, Vienna, Austria) according to manufacturer's instructions. In brief, cells were washed in PBS, incubated for 10 min in 100 ml binding buffer (10 mM HEPES/NaOH, pH 7.4, 140 mM NaCl, 2.5 mM CaCl2) containing 2.5 ml annexin V-FITC mix and 1 mg/ml propidium iodide (PI), subsequently diluted with 100 ml binding buffer and analyzed by flow cytometry (FACSCalibur/CELLQuest; Becton Dickinson, Heidelberg, Germany). Whereas viable cells are negative for both, annexin V-FITC and PI, early apoptotic cells show a positive annexin V-FITC staining, and cells in a late apoptotic stage which lose their membrane integrity additionally incorporate DNA-binding PI. To establish kill curves, concentrations of the tested compounds were titrated, and the measured viable cell fractions were further analyzed using the Prism Calculation Software (GraphPad Software Inc., La Jolla, USA).
In FIG. 2A Western blot analyses of caspases 9 and 3, and the caspase substrate PARP (upper panel), and viability analyses (lower panel) of INA-6 MM cells upon treatment with trans-7b for 24 hours are shown. INA-6 cells were either incubated with DMSO (as a solvent control) or with 0.6 μM of trans-7b, and additionally incubated either with DMSO or the pan-caspase inhibitor Z-VAD-FMK prior to analyses by Western or viability assessment (without Z-VAD-FMK co-treatment) by Annexin V/propidum iodide double staining. For Western analyses INA-6 cell pellets were dissolved in lysis buffer (20 mM HEPES (pH 7.9), 350 mM NaCl, 1 mM MgCl2, 0.5 mM EDTA, 0.1 mM EGTA, 1% NP40, 0.5 mM dithiothreiol (DTT), 1 mM Na3VO4, 0.1 mM PMSF and 1 μg/ml aprotinin). Lysates were cleared by centrifugation, measured by quantitative protein assay (Bio-Rad, München, Germany) and subjected to SDS gel electrophoresis. Proteins were transferred onto nitrocellulose membranes (Schleicher & Schuell, Dassel, Germany), incubated with antibodies specific for caspase 9, caspase 3 or PARP (Cell Signaling Technology, Frankfurt a.Main, Germany) according to standard procedures and visualized with secondary anti-rabbit horseradish peroxidase (HRP)-conjugated antibodies using an enhanced chemoluminescence detection system (ECL, Amersham, Freiburg, Germany). […] Annexin V/propidium iodide (PI) staining was performed using a fluorescein isothiocyanate (FITC) conjugated recombinant human annexin/propidium iodide kit (BenderMedSystems, Vienna, Austria) according to the manufacturer's instructions. INA-6 cells were washed in PBS, incubated for 15 minutes in 100 ml binding buffer (10 mM HEPES/NaOH, pH 7.4, 140 mM NaCl, 2.5 mM CaCl2) containing 2.5 mL annexin V-FITC mix and 1 mg/ml PI and analyzed by flow cytometry (FACSCalibur/CELLQuest; Becton Dickinson, Heidelberg, Germany). Whereas early apoptosis is characterized by positive annexin V-FITC staining reaction, cells in a late apoptotic stage lose their membrane integrity and additionally incorporate PI. Thus, the fraction of viable cells remains negative for both annexin V-FITC and PI. […] Based on the above described experiments also viability analyses of INA-6 in comparison with non-malignant PBMCs were performed choosing a longer incubation time (72 hours) as shown in FIG. 2B or C. Raw data of three independent experiments have been calculated to establish means, standard deviation and dose-effect curves of trans-7b.

[1] = INA-6 multiple myeloma cells, 72 hours of treatment, viable cell fraction, mean of at least three determinations

| Compound | EC50 [1] | EC50 |
| --- | --- | --- |
| COc1ccc(N2C(=O)c3ccccc3[C@H](C(=O)O)[C@@H]2c2ccccc2)cc1 (relative stereo) [cis-6c, Sodium cis-2-(4-methoxyphenyl)-1-oxo-3-phenyl-1,2,3,4-tetrahydroisoquinoline-4-carboxylate] |  | > 100 µM |
| COc1ccc([C@H]2[C@H](C(=O)O)c3ccccc3C(=O)N2c2ccc(OC)cc2)cc1 (relative stereo) [cis-6d, Sodium trans-2,3-bis(4-methoxyphenyl)-1-oxo-1,2,3,4-tetrahydroisoquinoline-4-carboxylate] | > 100 µM |  |
| COc1ccc([C@H]2[C@H](C(=O)O)c3ccccc3C(=O)N2c2ccccc2)cc1 (relative stereo) [trans-6b, Sodium trans-3-(4-methoxyphenyl)-1-oxo-2-phenyl-1,2,3,4-tetrahydroisoquinoline-4-carboxylate] |  | 2 µM |
| COc1ccc(N2C(=O)c3ccccc3[C@@H](C(=O)O)[C@@H]2c2ccccc2)cc1 (relative stereo) [trans-6c, Sodium trans-2-(4-methoxyphenyl)-1-oxo-3-phenyl-1,2,3,4-tetrahydroisoquinoline-4-carboxylate] |  | 64 µM |
| COc1ccc([C@H]2[C@@H](C(=O)O)c3ccccc3C(=O)N2c2ccc(OC)cc2)cc1 (relative stereo) [trans-6d, Sodium cis-2,3-bis(4-methoxyphenyl)-1-oxo-1,2,3,4-tetrahydroisoquinoline-4-carboxylate] | 7.9 µM |  |
| Cc1cccc(NC(=O)C2c3ccccc3C(=O)N(c3ccccc3)C2c2ccccc2)n1 (stereo not drawn) [trans-7a, trans-N-(6-Methylpyridin-2-yl)-1-oxo-2,3-diphenyl-1,2,3,4-tetrahydroisoquinoline-4-carboxamide] | 2.3 µM |  |
| COc1ccc(C2C(C(=O)Nc3cccc(C)c3)c3ccccc3C(=O)N2c2ccc(OC)cc2)cc1 (stereo not drawn) [trans-7e, trans-2,3-Bis(4-methoxyphenyl)-1-oxo-N-(m-tolyl)-1,2,3,4-tetrahydroisoquinoline-4-carboxamide] |  | 0.88 µM |

More lines, main results first:

| EC50 [1] | Compound | EC50 |
| --- | --- | --- |
| 0.68 µM | COc1ccc(C2C(C(=O)Nc3cccc(C)n3)c3ccccc3C(=O)N2c2ccc(OC)cc2)cc1 (stereo not drawn) [trans-7d, trans-2,3-Bis(4-methoxyphenyl)-N-(6-methylpyridin-2-yl)-1-oxo-1,2,3,4-tetrahydroisoquinoline-4-carboxamide] |  |
| 0.53 µM | COc1ccc(C2C(C(=O)Nc3ccccn3)c3ccccc3C(=O)N2c2ccc(OC)cc2)cc1 (stereo not drawn) [trans-7f, trans-2,3-Bis(4-methoxyphenyl)-1-oxo-N-(pyridin-2-yl)-1,2,3,4-tetrahydroisoquinoline-4-carboxamide] |  |
| 7.1 µM | CNC(=O)C1c2ccccc2C(=O)N(c2ccc(OC)cc2)C1c1ccc(OC)cc1 (stereo not drawn) [trans-7g, trans-2,3-Bis(4-methoxyphenyl)-N-methyl-1-oxo-1,2,3,4-tetrahydroisoquinoline-4-carboxamide] |  |
| > 100 µM | COc1ccc(C2C(C(=O)N(C)C)c3ccccc3C(=O)N2c2ccc(OC)cc2)cc1 (stereo not drawn) [trans-7h, trans-2,3-Bis(4-methoxyphenyl)-N,N-dimethyl-1-oxo-1,2,3,4-tetrahydroisoquinoline-4-carboxamide] |  |
| > 100 µM | COc1ccc(C2C(C(=O)Nc3cccc4c3CCCC4)c3ccccc3C(=O)N2c2ccc(OC)cc2)cc1 (stereo not drawn) [trans-7i, trans-2,3-Bis(4-methoxyphenyl)-1-oxo-N-(5,6,7,8-tetrahydronaphthalen-1-yl)-1,2,3,4-tetrahydroisoquinoline-4-carboxamide] |  |
| 0.95 µM | COc1ccc(C2C(C(=O)Nc3cc(C)cc(C)c3)c3ccccc3C(=O)N2c2ccc(OC)cc2)cc1 (stereo not drawn) [trans-7j, trans-N-(3,5-Dimethylphenyl)-2,3-bis(4-methoxyphenyl)-1-oxo-1,2,3,4-tetrahydroisoquinoline-4-carboxamide] |  |
| 6.4 µM | Cc1cccc(NC(=O)C2c3ccccc3C(=O)N(c3ccc(F)cc3)C2c2ccc(F)cc2)n1 (stereo not drawn) [trans-7k, trans-2,3-Bis(4-fluorophenyl)-N-(6-methylpyridin-2-yl)-1-oxo-1,2,3,4-tetrahydroisoquinoline-4-carboxamide] |  |
